{"source": "patent US6165732A", "about": "“Method for identifying apoptosis modulating compounds” (Washington University, priority 1998, dated 2000)", "key": {"[1]": {"experiment": "Cl- release (efflux) from KCl loaded synthetic lipid vesicles as a function of pH", "format": "biochemical", "procedure": "This example illustrates that Bax and Bcl-2 induce the release of ions from synthetic lipid vesicles.\nUnilamellar vesicles composed of 40% 1,2 dioleoyl phosphatidyl glycerol and 60% 1,2 dioleoyl phosphatidyl choline (Avanti Polar Lipids) were prepared in 100 mM KCl, 2 mM CaNO3 and 10 mM dimethylglutarate, pH 5.0 as previously described (Peterson et al., J. Membr. Biol. 99:197-204, 1987). The resulting liposomes were diluted 200-fold to a concentration of 0.05 mg/ml in 100 mM KNO3, 2 mM CaNO3 and 10 mM dimethylglutarate which was titrated to pH 3.5, 4.0, 4.5, 5.0, 5.5 or 6.0 with NaOH or with acetic acid. BaxΔC19 and Bcl-2ΔC21 were added at a concentration of 500 ng/ml and Cl^- efflux was measured with a Cl^- combination ion selective electrode (Accumet). Triton X-100 (0.1%) was added to release the total encapsulated Cl^- at the times indicated by the arrows in FIG. 1. The total amount of Cl^- released was quantitated by a calibration curve produced by successive additions of 25 μM KCl."}, "[2]": {"experiment": "Low pH channel formation after addition of protein to an established planar lipid bilayer", "format": "biochemical", "conditions": "for conductance of initial channel / time to appearance of initial current: 450/150 mM KCl; for conductance of initial channel: pH 4.0, initial current; for ion selectivity of channel: low pH insertion", "text": "(§1) The Bax and Bcl-2 polypeptides used in the ion channel studies reported herein were recombinant murine Bcl-2 and Bax polypeptides lacking the C-terminal signal-anchor membrane targeting sequence (Bcl-2ΔC21, amino acids 1-218 of SEQ ID NO:9 and BaxΔC19, amino acids 1-173 of SEQ ID NO:6). These deletion derivatives, also referred to herein as BaxΔTM and Bcl-2ΔTM, were used to avoid any interference of the C-terminal signal-anchor membrane targeting sequence with the capacity of internal α helices to mediate insertion into artificial lipid bilayers.\n(§2) Planar lipid bilayers were prepared from soybean lipids by chloroform extraction of Azolectin Type II (10-20% choline, 80-90% negatively charged lipids) (Sigma). The chloroform was removed with a stream of nitrogen and the lipids stored under N2 until dissolved in decane at 30 mg/ml. This preparation was then stored under nitrogen. The 0.25 mm orifice of a polystyrene cuvette (Warner Instruments) was pretreated with 2 μl of the decane lipid solution and the solvent allowed to evaporate. The cuvette was then placed into a bilayer chamber and connected to Bilayer Clamp BC525-a (Warner Instruments) by Ag/AgCl electrodes via agar salt bridges. Data were collected using an Axoscope (Axon Instruments Software), archived on video tape using a Neurocorder DR-484 (Neuro Data Instruments), and analyzed using Origin (Microcal) and pClamp6 (Axon Instruments Software). Slope conductance was calculated by the method of least squares and the variance is given. Ion selectivities were calculated using the reversal potential and the Goldman equation. The reversal potential means the zero-current potential of a bilayer membrane. The reversal potential is zero with no ion gradient and the magnitude of the potential in the presence of an ion gradient reflects the cation versus anion selectivity of the bilayer.\nBilayers were formed by spreading with a polished glass rod and allowed to thin to a capacitance of 0.4 μF/cm^2 at which point the noise was typically 0.2 pA and the leak conductance was 20 pS. The salt concentrations were initially 450 mM KCl in the cis chamber (1.0 ml) and 150 mM KCl in the trans chamber (0.5 ml) to permit identification of spontaneous initial currents. Outward (positive) currents were defined as K^+ moving cis-to trans. All solutions were buffered to pH 4.0 with 10 mM K-acetate. BaxΔTM or Bcl-2ΔTM (approx. 1 μg) was added to the cis chamber with mixing. After initial currents were identified the soluble protein was usually removed by exchanging the cis chamber contents with aliquots of buffer."}, "[3]": {"experiment": "Channels in planar lipid bilayers at pH 7.0 after fusion with unilamellar proteoliposomes containing the protein", "format": "biochemical", "text": "as §1, §2\nProteoliposomes for fusion with a planar lipid bilayer were prepared as follows. Purified protein (0.25 μg) was added to […] lipid (Azolectin) in 20 μl of KCl buffer (150 mM KCl, 10 mM HEPES, pH 7.0). This mixture was placed into a dialysis bag with a molecular weight cutoff of 12 KDa. After 16 hours dialysis in 3000 volumes of 150 mM KCl (10 mM HEPES, pH 7.0) the proteoliposome suspension was removed and placed on ice for immediate use. The bilayer was set up with a 450:150 cis to trans KCl gradient to identify the ion selectivity of the initial currents. Fusion was initiated by adding 5-20 μl of lipid vesicles (only 5-20 ng of protein) to the cis bilayer chamber with mixing. Non-fused proteoliposomes were removed from the compartments and solutions exchanged as described above.\nControl bilayers containing Bcl-2 or Bax channels were prepared by fusion of unilamellar proteoliposomes with incorporated Bcl-2ΔTM or BaxΔTM with an established planar bilayer as described in Example 4. Test bilayers containing Bcl-2 channels were prepared in the same manner to which an 11 mer Bax peptide (SEQ ID NO:1) with known death agonist activity was added at 20, 50 or 100 μM. A voltage of 80 mV was applied to each control and test channel and its conductance measured for a period of 12 to 16 seconds and the frequency that each channel was measured at a particular conductance level (pA) was calculated. The data, representing about 500,000 measurements, are shown as histograms in FIGS. 8A-8E. […]"}, "[4]": {"conditions": "planar lipid bilayers, pH 7.0 (Antonsson et al.), cited from earlier work"}, "[5]": {"conditions": "physiological pH (Antonsson et al.); cited from earlier work"}, "[6]": {"conditions": "450/150 mM KCl gradient, pH 7.0"}}, "note": "Read-outs that look alike come from different tables or passages of the source."}
{"substance": "Bax: recombinant murine Bax polypeptide lacking the C-terminal signal-anchor membrane targeting sequence (amino acids 1-173 of SEQ ID NO:6)", "values": [{"measurement": "highest pH with retained activity (ion release from liposomes)", "setting": "[1]", "value": "≤ 5.5", "unit": "pH"}, {"measurement": "pH of maximum release of Cl-", "setting": "[1]; 500 ng/ml, FIG. 1A", "value": "4.0-4.5 pH"}, {"measurement": "Cl- release from KCl loaded lipid vesicles", "setting": "[1]; pH 3.5", "value": 41, "unit": "%"}, {"measurement": "release of Cl-, decrease from maximum", "setting": "[1]; pH 3.5, 500 ng/ml, FIG. 1A", "value": 50, "unit": "%"}, {"measurement": "Cl- release from KCl loaded lipid vesicles", "setting": "[1]; pH 4.0, same quantities of each protein", "value": 75, "unit": "%"}, {"measurement": "Cl- release from KCl loaded lipid vesicles", "setting": "[1]; pH 5.0", "value": 41, "unit": "%"}, {"measurement": "release of Cl-, decrease from maximum", "setting": "[1]; pH 5.0, 500 ng/ml, FIG. 1A", "value": 50, "unit": "%"}, {"measurement": "release of Cl-, decrease from maximum", "setting": "[1]; pH 5.5, 500 ng/ml, FIG. 1A", "value": "less than 10%"}, {"measurement": "release of Cl- on pH shift", "setting": "[1]; pH 6.0 shifted to pH 4.0, FIG. 1C", "value": "a rapid release of Cl^-"}, {"measurement": "ratio of channel indicator release at pH 3.5 and pH 4.0 (R3.5/4.0)", "setting": "[1]; stated as behaviour like Bax / Bcl-2 (criterion)", "value": "less than 1"}, {"measurement": "initial current (direction)", "setting": "[2]; 450/150 mM KCl cis to trans, pH 4.0, spontaneous (OS)", "value": "initial, inward current"}, {"measurement": "conductance of initial channel", "setting": "[2]", "value": "22 (s.d. 5, n=5) pS"}, {"measurement": "conductance of initial channel", "setting": "[2]; listed as BaxΔTM", "value": 22, "unit": "pS"}, {"measurement": "time to appearance of initial current", "setting": "[2]; pH 4.0, listed as BAXΔTM", "value": "≤ 10", "unit": "min"}, {"measurement": "time to appearance of initial current", "setting": "[2]; pH 4.0, listed as BaxΔTM", "value": "Four"}, {"measurement": "duration of channel transition", "setting": "[2]; +40 mV, pH 4.0", "value": "~ 5 mins"}, {"measurement": "current level, C and OS", "setting": "[2]; +40 mV, transition, pH 4.0", "value": 0, "unit": "pA"}, {"measurement": "current level, O1", "setting": "[2]; +40 mV, transition, pH 4.0", "value": 2.36, "unit": "pA"}, {"measurement": "current level, O1+2", "setting": "[2]; +40 mV, transition, pH 4.0", "value": 8.81, "unit": "pA"}, {"measurement": "current level, O2", "setting": "[2]; +40 mV, transition, pH 4.0", "value": 6.4, "unit": "pA"}, {"measurement": "current level, C", "setting": "[2]; -40 mV, transition, pH 4.0", "value": 0, "unit": "pA"}, {"measurement": "current level, O1", "setting": "[2]; -40 mV, transition, pH 4.0", "value": -10.9, "unit": "pA"}, {"measurement": "current level, O1+2", "setting": "[2]; -40 mV, transition, pH 4.0", "value": -30.5, "unit": "pA"}, {"measurement": "current level, OS", "setting": "[2]; -40 mV, transition, pH 4.0", "value": -2.14, "unit": "pA"}, {"measurement": "voltage dependence", "setting": "[2]; hyperpolarization to -40 mV, pH 4.0", "value": "increased the channel activity"}, {"measurement": "slope conductance of final stable channel", "setting": "[2]; pH 4.0", "value": "0.731±0.01", "unit": "nS"}, {"measurement": "PK/PCl (Cl- selectivity, average over current levels)", "setting": "[2]; pH 4.0, from reversal potential", "value": 0.10}, {"measurement": "effect of shifting pH on conductance and selectivity", "setting": "[2]; pH 4.0 to 7.0", "value": "altered the conductance and selectivity of Bax"}, {"measurement": "current-voltage relation", "setting": "[2]; pH 7.0", "value": "linear with voltage"}, {"measurement": "conductance after pH shift to 7.0", "setting": "[2]; pH 7.0, 450/150 mM KCl gradient", "value": "0.329±0.002", "unit": "nS"}, {"measurement": "conductance after pH shift to 7.0", "setting": "[2]; pH 7.0, both chambers 150 mM KCl", "value": "0.302±0.008", "unit": "nS"}, {"measurement": "PK/PCl after pH shift to 7.0", "setting": "[2]; pH 7.0 after insertion at pH 4.0", "value": 0.5}, {"measurement": "time from initial appearance to channel progression", "setting": "[2]; planar bilayers", "value": "2 to 4", "unit": "min"}, {"measurement": "ion selectivity of channel", "setting": "[2]; planar bilayers", "value": "consistent anion selectivity"}, {"measurement": "ion selectivity of channel", "setting": "[2]; planar bilayers, listed as BAX", "value": "Cl^- selective"}, {"measurement": "less frequent conductance peak", "setting": "[3]; 80 mV, no peptide", "value": "about 65 pA"}, {"measurement": "PK/PCl from reversal potential", "setting": "[3]; [6]", "value": 0.32}, {"measurement": "initial current (direction)", "setting": "[3]; [6]", "value": "inward (PK <PCl) current"}, {"measurement": "duration of periodic channel closing", "setting": "[3]; -70 mV, symmetrical 150 mM KCl", "value": "20 to 30", "unit": "ms"}, {"measurement": "conductance pattern", "setting": "[3]; neutral pH", "value": "simpler single channel conductance pattern"}, {"measurement": "ion selectivity of channel", "setting": "[3]; neutral pH, proteoliposome fusion", "value": "Cl^- -selective"}, {"measurement": "channel conductance at negative voltages", "setting": "[3]; symmetrical 150 mM KCl, pH 7.0", "value": "1.5 (sd 0.3, n=3) nS"}, {"measurement": "rectification", "setting": "[3]; symmetrical KCl, neutral pH", "value": "Mild outward rectification"}, {"measurement": "ion selectivity", "setting": "[4]", "value": "cation selective"}, {"measurement": "permeability ratio of Na+ to Cl-", "setting": "[4]", "value": "about 2.1"}, {"measurement": "ion selectivity", "setting": "[4]; listed as BaxΔTM", "value": "slightly cation selective"}, {"measurement": "pore-forming activity in liposomes", "setting": "[5]", "value": "intrinsic pore-forming activity"}]}
